Measurements taken from patent publication US20240270679A1, “LIPIDS FOR USE IN LIPID NANOPARTICLE FORMULATIONS” (Acuitas Therapeutics, Inc., priority 2022, published 2024).

Legend:
[1] = Determination of pKa of formulated lipids (TNS fluorescence assay in lipid nanoparticles); assay type: physicochemical; conditions: lipid nanoparticles (compound/DSPC/cholesterol/PEG-lipid), lipid formulated in LNP (cationic lipid/DSPC/cholesterol/PEG-lipid), pH of half-maximal fluorescence
Description: As described elsewhere, the pKa of formulated lipids is correlated with the effectiveness of LNPs for delivery of nucleic acids (see Jayaraman et al, Angewandte Chemie, International Edition (2012), 51(34), 8529-8533; Semple et al, Nature Biotechnology 28, 172-176 (2010)). In some embodiments, the preferred range of pKa is ˜5 to ˜7. The pKa of each lipid is determined in lipid nanoparticles using an assay based on fluorescence of 2-(p-toluidino)-6-napthalene sulfonic acid (TNS). Lipid nanoparticles comprising compound of structure (I)/DSPC/cholesterol/PEG-lipid (50/10/38.5/1.5 or 47.5:10:40.7:1.8 mol %) in PBS at a concentration of 0.4 mM total lipid are prepared using the in-line process as described in Example 1. TNS is prepared as a 100 μM stock solution in distilled water. Vesicles are diluted to 24 μM lipid in 2 mL of buffered solutions containing 10 mM HEPES, 10 mM MES, 10 mM ammonium acetate, and 130 mM NaCl, where the pH ranged from 2.5 to 11. An aliquot of the TNS solution is added to give a final concentration of 1 μM and following vortex mixing fluorescence intensity is measured at room temperature in a SLM Aminco Series 2 Luminescence Spectrophotometer using excitation and emission wavelengths of 321 nm and 445 nm. A sigmoidal best fit analysis is applied to the fluorescence data and the pKa is measured as the pH giving rise to half-maximal fluorescence intensity.

human IgG in mouse serum = assay: Immunoglobulin G (IgG) mRNA in vivo evaluation using lipid nanoparticle compositions (human IgG ELISA); set-up: species or system mice; conditions: tail vein injection, μg IgG/mL serum 24 hours after administration; for Serum IgG @ 0.3 mg/kg: 0.3 mg mRNA/kg; for Serum IgG @ 1.0 mg/kg: 1.0 mg mRNA/kg
Description: A lipid of structure (I), DSPC, cholesterol and PEG-lipid are solubilized in ethanol at a molar ratio of 50:10:38.5:1.5 or 47.5:10:40.7:1.8. Lipid nanoparticles (LNP) are prepared at a total lipid to mRNA weight ratio of approximately 10:1 to 40:1. Briefly, the mRNA is diluted to 0.2 mg/mL in 10 to 50 mM citrate buffer, pH 4 or 10 to 25 mM acetate buffer, pH 4. Syringe pumps are used to mix the ethanolic lipid solution with the mRNA aqueous solution at a ratio of about 1:5 to 1:3 (vol/vol) with total flow rates above 15 mL/min. The ethanol is then removed, and the external buffer replaced with PBS by dialysis. Finally, the lipid nanoparticles are filtered through a 0.2 µm pore sterile filter.
Studies are performed in 6-8-week-old CD-1/ICR mice (Envigo) according to guidelines established by an institutional animal care committee (ACC) and the Canadian Council on Animal Care (CCAC). Varying doses of mRNA-lipid nanoparticle are systemically administered by tail vein injection and animals euthanized at a specific time point (e.g., 24 hours) post-administration. The whole blood is collected, and the serum subsequentially separated by centrifuging the tubes of the whole blood at 2000×g for 10 minutes at 4° C. and stored at −80° C. until use for analysis.
For immunoglobulin G (IgG) ELISA (Life Diagnostics Human IgG ELISA kit), the serum samples are diluted at 100 to 15000 folds with 1× diluent solution. 100 μL of diluted serum is dispensed into anti-human IgG coated 96-well plate in duplicate alongside human IgG standards and incubated in a plate shaker at 150 rpm at 25° C. for 45 minutes. The wells are washed 5 times with 1× wash solution using a plate washer (400 μL/well). 100 μL of HRP conjugate is added into each well and incubated in a plate shaker at the same condition above. The wells are washed 5 times again with 1× wash solution using a plate washer (400 μL/well). 100 μL of TMB reagent is added into each well and incubated in a plate shaker at the same condition above. The reaction is stopped by adding 100 μL of Stop solution to each well. The absorbance is read at 450 nm (A450) with a microplate reader. The amount of human IgG in mouse serum is determined by plotting A450 values for the assay standard against human IgG concentration.
Representative compounds of the disclosure shown in Table 2 were formulated using the following molar ratio: 50% cationic lipid/10% distearoylphosphatidylcholine (DSPC)/38.5% Cholesterol/1.5% PEG lipid 2-[2-(ω-methoxy(polyethyleneglycol2000)ethoxy]-N,N-ditetradecylacetamide) or 47.5% cationic lipid/10% DSPC/40.7% Cholesterol/1.8% PEG lipid. Activity was determined by measuring luciferase expression in the liver 4 hours following administration via tail vein injection as described in Example 1 or by measuring the amount of human IgG in mouse serum as described in Example 2. The activity was compared at a dose of 1.0 or 0.5 or 0.3 mg mRNA/kg and expressed as ng luciferase/g liver measured 4 hours after administration, as described in Example 1 or as μg IgG/mL serum measured 24 hours after administration, as described in Example 2. Compound numbers in Table 2 refer to the compound numbers of Table 1.

pKa [1] | SMILES | Serum IgG @ 0.3 mg/kg (human IgG in mouse serum) [µg/mL] | Serum IgG @ 1.0 mg/kg (human IgG in mouse serum) [µg/mL]
6.46 | CCCCCCCCC(CCCCCC)COC(=O)CCCCCN(CCCCCC(=O)OCC(CCCCCC)CCCCCCCC)CCCN(C)CCCCC(=O)OC (stereo not drawn) [Compound I-50, Bis(2-hexyldecyl) 6,6′-((3-((5-methoxy-5-oxopentyl)(methyl)amino)propyl)azanediyl)dihexanoate] | 15.4 ± 2.6 | 91.5 ± 19.7
6.4 | CCCCCCCCC(CCCCCC)C(=O)OCCCCCCN(CCCCCCOC(=O)C(CCCCCC)CCCCCCCC)CCCCN(C)CCCCC(=O)N(CCCCCCCC)CCCCCCCC (stereo not drawn) [Compound I-51, ((4-((5-(dioctylamino)-5-oxopentyl)(methyl)amino)butyl)azanediyl)bis(hexane-6,1-diyl)bis(2-hexyldecanoate)] | 31.9 ± 6.5 | 131.5 ± 18.1
6.71 | CCCCCCCCC(CCCCCC)C(=O)OCCCCCCN(CCCCCCOC(=O)C(CCCCCC)CCCCCCCC)CCN(C)CCCC(=O)N(CC)CC (stereo not drawn) [Compound I-52, 6-((2-((3-(N,N-diethylcarbamoyl)propyl)-n-methylamino)ethyl)(6-(1-hexylnonylcarbonyloxy)hexyl)amino)hexyl 2-hexyldecanoate] | 6.4 ± 2.6 | 35.4 ± 11.1
